Test results taken from patent US9951033B2, “Tertiary amines for use in the treatment of cardiac disorders” (Universitetet I Oslo, priority 2012, dated 2018).
Where two headings read alike, the source gives them in different places.

Assays:
[1] = target: GST-AKAP18δ: PLB-biotin interaction (Rattus norvegicus (Rat), UniProt Q6JP77); test: AKAP18δ-PLB AlphaScreen assay; type: binding
Description: Stable and optimal assay conditions were determined by cross-titrating GST-AKAP18 δ and biotinylated PLB using 10 μg/ml glutathione acceptor beads and 10 μg/ml streptavidin donor beads in an AlphaScreen assay. The excitation wavelength was 680 nm, with the emission wavelength being 520-560 nm. Signal intensity in each well was registered and the optimal concentration to use was chosen to be the concentration prior to the peak of the signal.
Concentrations to give a reliable signal were determined to be between 2 and 16 nM for AKAP18δ-GST and 4 and 20 nM PLB-biotin for relevant preparations of protein, for example 4 nM and 20 nM, respectively.

[2] = tested on: metabolically active cells; test: Cell viability luminescence assay; type: cell-based
Description: Compound toxicity was measured in a luminescence assay that gives a signal proportional to the amount of metabolically active cells in the sample; the assay was performed as described by the supplier. All synthesized compounds were tested in the viability assay, and viability was registered at 24 hours and 72 hours.

[3] = tested on: PLB-Ser16 phosphorylation; test: PLB-Ser16 phosphorylation in rat neonatal cardiomyocytes after isoproterenol stimulation (western blot); type: cell-based; conditions: 24 hours prior to isoproterenol 100 nM, 5 minutes
Description: Based on data from studies in cardiomyocytes assay using a peptide that blocks AKAP18δ-PLB interaction, it was expected that effective compounds would also cause disruption of the AKAP18δ-PLB complex and decrease PLB-Ser^16 phosphorylation (Lygren et al. in EMBO Reports, volume 8, issue 11, page 1061-1067 (2007). A small selection of hits from the derivatized compounds were tested in this cell-based assay, performed as described in Lygren et al.
Briefly, compounds were added to primary cultures of rat neonatal cardiomyocytes were added compounds about 24 hour prior stimulation with isoproterenol, and amount of phosphorylated Ser^16-PLB was analyzed by western blotting using a pSer^16-PLB phosphospecific antibody. Actin was used as a loading control.
Rat neonatal cardiomyocytes treated with compounds 24 hours prior stimulation with isoproterenol (100 nM, 5 minutes).
Following on Example 53, two compounds, 2g and 3d (FIGS. 9A,B and 9C, respectively), were tested in more detail for their ability to interfere with phosphorylation of phospholamban after stimulation of neonatal (FIGS. 9A and 9C) or adult (FIG. 9B) primary cultures of cardiomyocytes.

[4] = target: SERCA2 (Rattus norvegicus (Rat), UniProt P11507); test: Patch clamp based SERCA2 activity in adult rat cardiomyocytes; type: cell-based; conditions: mesylate salt, 10 uM, in the presence of cAMP
Description: Adult rat cardiomyocytes were isolated and perfused with external solution (NaCl 125, CsCl 20, D-glucose 5, MgCl2 1, CaCl2 1.8, Hepes 10, 4-aminopyridine 5, probenecid 2, pH 7.4 by NaCH). Cell dialysis was achieved by 1-2 MΩ patch pipettes, filled with (in mM): CsCl 115, TEACl 20, Hepes 10, MgATP 5, Na2-Phosphocreatinine 5, EGTA 0.04, cAMP 0.005, adjusted to pH=7.2 with CsOH. Compound 2g (mesylate salt dissolved in water) was included at a concentration of 10 uM. Whole-cell Ca fluorescence measured from voltage-clamped cells was performed with Cairn Research Optoscan Monochromator (Excitation 488 nm, emission 515 nm long pass) (Cain Research Ltd., Faverham, UK). By applying 100 ms square voltage step from −45 to 0 mV at 0.125 Hz by an Axociamp 2B amplifier (Axon Instruments, Foster City, Calif., USA), basal Ca transients were recorded, and tau values were obtained by monoexponential fitting of the Ca^2+ extrusion phase from regular transients (τ) and caffeine transients (τcaff) after rapid applications of 10 mM caffeine. SERCA2 rate constant were calculated as: k_SERCA=1/τ−1/τcaff.

[5] = Aqueous solubility of tribenzylamine and salts quantified by HPLC (AUC); type: physicochemical; conditions: free base in water
Description: Tribenzylamine and the corresponding salts were dissolved in water and the solubility was quantified (area under curve (AUC)) by HPLC

[6] = screening of compound library, read-out: EC50
[7] = average ± standard deviation (n = 3) or ± half range (n = 2), read-out: EC50 in μM (n)
[8] = average ± standard deviation (n = 3) or ± half range (n = 2), read-out: EC50 (n)

Sequence of GST-AKAP18δ: PLB-biotin interaction (Q6JP77 whole entry): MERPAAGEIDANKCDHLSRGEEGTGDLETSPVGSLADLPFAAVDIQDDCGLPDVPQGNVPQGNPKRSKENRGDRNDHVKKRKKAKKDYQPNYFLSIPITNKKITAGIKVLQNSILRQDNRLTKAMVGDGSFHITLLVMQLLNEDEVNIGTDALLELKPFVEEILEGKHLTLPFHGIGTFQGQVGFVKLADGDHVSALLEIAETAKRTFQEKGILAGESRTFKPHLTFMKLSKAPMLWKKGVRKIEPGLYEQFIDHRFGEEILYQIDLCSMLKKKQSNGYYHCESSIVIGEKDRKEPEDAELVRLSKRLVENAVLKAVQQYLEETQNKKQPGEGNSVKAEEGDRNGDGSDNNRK

Row | EC50 [1, 6] [µM] | SMILES | Viability (100 μM) 24 hours [2] | further results
1 | 41.6 | CC(C)(C)c1ccc(CN(Cc2ccc(F)cc2)Cc2nc(C(=O)O)cs2)cc1 |  | 
2 | 137 | Cc1ccc(CN(Cc2ccc(F)cc2)Cc2nc(C(=O)O)cs2)cc1 |  | 
3 | 10.6 | O=C(O)c1csc(CN(CCC(c2ccccc2)c2ccccc2)Cc2ccccc2F)n1 |  | 
4 | 18 | O=C(O)c1csc(CN(CCC(c2ccccc2)c2ccccc2)Cc2ccc(F)cc2)n1 |  | 
5 | 21.1 | CC(C)(C)c1ccc(CN(CCC(c2ccccc2)c2ccccc2)Cc2nc(C(=O)O)cs2)cc1 |  | 
6 | 36.4 | O=C(O)c1csc(CN(Cc2ccc(F)cc2)Cc2cccc(Cl)c2)n1 |  | 
7 | 39.5 | O=C(O)c1csc(CN(Cc2ccc(F)cc2)Cc2ccc(OCc3ccccc3)cc2)n1 |  | 
8 | 60.5 | O=C(O)c1csc(CN(Cc2ccc(F)cc2)Cc2cccc(C(F)(F)F)c2)n1 |  | 
9 | 94.3 | O=C(O)c1csc(CN(Cc2ccc(F)cc2)Cc2ccc(Cl)cc2)n1 |  | 
10 | 98.3 | Cc1ccc(CN(Cc2cccc(C(F)(F)F)c2)Cc2nc(C(=O)O)cs2)cc1 |  | 
11 | 25.6 | COc1ccc(CN(Cc2ccc(F)cc2)Cc2nc(C(=O)O)cs2)cc1 |  | 
12 | 35.4 | Cc1ccc(CN(CCC(c2ccccc2)c2ccccc2)Cc2nc(C(=O)O)cs2)cc1 |  | 
13 | 29.6 | O=C(O)c1ccc(CN(Cc2ccccc2)Cc2ccc(C(=O)O)cc2)cc1 |  | 
14 | 3.8 | Nc1ccc(CN(Cc2ccccc2)Cc2ccc(N)cc2)cc1 |  | 
15 | 216 | O=C(O)c1csc(CN(Cc2cccc(C(F)(F)F)c2)Cc2ccccc2F)n1 |  | 
16 | 9.3 | O=C(Nc1ccc(F)cc1)Nc1ccc(CN(Cc2ccccc2)Cc2ccc(NC(=O)Nc3ccc(F)cc3)cc2)cc1 |  | 
17 | 3.6 | O=C(Nc1ccccc1)Nc1ccc(CN(Cc2ccccc2)Cc2ccc(NC(=O)Nc3ccccc3)cc2)cc1 |  | 
18 | 2.9 | CCN(CC)c1ccc(CN(Cc2ccccc2)Cc2ccc(N(CC)CC)cc2)cc1 |  | 

Row | EC50 [1, 6] [µM] | SMILES | Viability (100 μM) 24 hours [2] | further results
19 | 22.2 | Nc1ccc(CN(Cc2ccc(N)cc2)Cc2ccc(N)cc2)cc1 |  | 
20 | 2.5 | Cc1ccc(NC(=O)Nc2ccc(CN(Cc3ccccc3)Cc3ccc(NC(=O)Nc4ccc(C)cc4)cc3)cc2)cc1 |  | 
21 | 5.2 | Cc1ccc(NC(=O)Nc2ccc(CN(Cc3ccc(NC(=O)Nc4ccccc4)cc3)Cc3ccc(NC(=O)Nc4ccc(C)cc4)cc3)cc2)cc1 |  | 
22 |  | Fc1ccc(CN(Cc2ccncc2)Cc2ccc(F)cc2)cc1 [Example 2a] | 0.85 | 
23 |  | Oc1ccc(O)c(CN(Cc2ccncc2)Cc2cc(O)ccc2O)c1 [Example 2b] | 0.10 | Effect on PLB phosphorylation in cardiomyocytes [3]: −; EC50 [1, 7]: 12.3 ± 3.08 µM
24 |  | COC(=O)c1ccc(CN(Cc2ccccc2)Cc2ccc(C(=O)OC)cc2)cc1 [Example 2f] | 0.92 | 
25 |  | CN(C)c1ccc(CN(Cc2ccccc2)Cc2ccc(N(C)C)cc2)cc1 [Example 2g] | 0.56 | SERCA2 activity [4]: increased SERCA2 activity; Effect on PLB phosphorylation in cardiomyocytes [3]: ++; effect on PLB phosphorylation in cardiomyocytes [3]: concentration dependent inhibition of PLB-phosphorylation; EC50 [1, 7]: 1.7 ± 0.91 µM
26 |  | CC(c1ccccc1)N(Cc1ccc(N(C)C)cc1)Cc1ccc(N(C)C)cc1 (stereo not shown) [Example 2h] | 0.91 | 
27 |  | CC(C)(C)c1ccc(CN(Cc2ccncc2)Cc2ccc(F)cc2)cc1 [Example 3a] | 0.79 | 
28 |  | Oc1ccc(O)c(CN(Cc2ccncc2)Cc2ccc(F)cc2)c1 [Example 3b] | 0.03 | EC50 [1]: approximately the same as for 2b; EC50 [1, 8]: 5.43 ± 1.11 µM
29 |  | CN(C)c1ccc(CN(Cc2ccccc2)CC(c2ccccc2)c2ccccc2)cc1 [Example 3c] | 0.74 | Effect on PLB phosphorylation in cardiomyocytes [3]: +; effect on PLB phosphorylation in cardiomyocytes [3]: somewhat weaker than that of 2g; EC50 [1, 8]: 0.44 ± 0.18 µM; EC50 ([1]; read-out: EC50): 0.327 µM
30 |  | CN(C)c1ccc(CN(Cc2ccccc2)Cc2ccc3c(c2)CCO3)cc1 [Example 3d] | 0.58 | effect on PLB phosphorylation in cardiomyocytes [3]: did not appear to have an effect; EC50 [1, 8]: 2.45 ± 0.73 µM; EC50 ([1]; read-out: EC50): 2.79 µM
31 |  | COC(=O)c1ccc(CN(Cc2ccccc2)Cc2ccc(F)cc2)cc1 [Example 3e] | 0.57 | 
32 |  | O=C(O)c1ccc(CN(Cc2ccccc2)Cc2ccc(F)cc2)cc1 [Example 3f] | 0.98 | Effect on PLB phosphorylation in cardiomyocytes [3]: +; effect on PLB phosphorylation in cardiomyocytes [3]: did not appear to have an effect
33 |  | Fc1ccc(CN(Cc2ccccc2)Cc2ccc(-c3ccccc3-c3nn[nH]n3)cc2)cc1 [Example 3g] | 0.80 | EC50 [1, 8]: 47.1 µM; EC50 ([1]; read-out: EC50): 47.1 µM
34 | 2 | CN(C)c1ccc(CN(Cc2ccccc2)Cc2ccc(N(C)C)cc2)cc1 [drawing 177] |  | 
35 |  | c1ccc(CN(Cc2ccccc2)Cc2ccccc2)cc1 [tribenzylamine, Tribenzylamine] |  | AUC Free base [5]: ≈0 mAu*s

Row | SMILES | EC50 [1, 6] [µM] | Viability (100 μM) 24 hours [2] | further results
36 | O=[N+]([O-])c1ccc(CN(Cc2ccccc2)Cc2ccc([N+](=O)[O-])cc2)cc1 | 7.5 |  | 
